Target: Ephrin type-A receptor 2 (Mus musculus, UniProt Q03145)
Assay: Displacement of biotinylated Fc-tagged ephrin-A1 from C/N-terminal 6-His tagged mouse recombinant EphA2 (Ala22 to Ala535 residues) preincubated for 1 hr followed by ephrin-A1-Fc addition and measured after 4 to 5 hrs by ELISA assay

Chain of Ephrin type-A receptor 2 (Q03145 whole entry): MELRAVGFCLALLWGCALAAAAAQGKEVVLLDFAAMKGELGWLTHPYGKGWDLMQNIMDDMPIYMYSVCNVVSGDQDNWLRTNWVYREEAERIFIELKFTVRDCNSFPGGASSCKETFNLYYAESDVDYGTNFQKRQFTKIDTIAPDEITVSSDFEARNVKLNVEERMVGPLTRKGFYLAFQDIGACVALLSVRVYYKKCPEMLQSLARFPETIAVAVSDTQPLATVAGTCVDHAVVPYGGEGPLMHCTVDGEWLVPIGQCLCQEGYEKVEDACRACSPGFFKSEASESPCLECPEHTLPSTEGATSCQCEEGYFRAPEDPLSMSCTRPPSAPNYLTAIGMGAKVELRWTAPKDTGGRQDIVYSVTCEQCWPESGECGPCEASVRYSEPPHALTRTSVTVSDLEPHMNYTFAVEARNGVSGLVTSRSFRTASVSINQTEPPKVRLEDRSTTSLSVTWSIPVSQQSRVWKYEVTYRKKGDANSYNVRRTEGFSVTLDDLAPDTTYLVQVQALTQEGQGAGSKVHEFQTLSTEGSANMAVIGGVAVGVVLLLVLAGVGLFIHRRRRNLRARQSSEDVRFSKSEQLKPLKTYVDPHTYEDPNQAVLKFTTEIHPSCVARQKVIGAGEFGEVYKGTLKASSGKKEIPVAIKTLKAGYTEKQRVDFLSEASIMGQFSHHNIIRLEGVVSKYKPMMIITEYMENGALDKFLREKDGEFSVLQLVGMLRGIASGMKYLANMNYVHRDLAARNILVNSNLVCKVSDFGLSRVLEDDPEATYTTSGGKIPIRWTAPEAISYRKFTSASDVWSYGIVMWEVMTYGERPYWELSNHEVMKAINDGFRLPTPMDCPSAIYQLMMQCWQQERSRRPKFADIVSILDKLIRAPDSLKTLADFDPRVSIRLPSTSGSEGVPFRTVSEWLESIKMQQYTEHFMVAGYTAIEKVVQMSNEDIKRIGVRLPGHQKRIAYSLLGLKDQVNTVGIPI

SMILES | IC50 [µM]
C[C@H](CCC(=O)N[C@H](CC(=O)O)Cc1cn(S(=O)(=O)c2ccc(-c3ccccc3)cc2)c2ccccc12)[C@H]1CC[C@H]2[C@@H]3CC=C4C[C@@H](O)CC[C@]4(C)[C@H]3CC[C@]12C | 20
C[C@H](CCC(=O)N[C@H](CC(=O)O)Cc1cn(S(=O)(=O)c2cccc(F)c2)c2ccccc12)[C@H]1CC[C@H]2[C@@H]3CC=C4C[C@@H](O)CC[C@]4(C)[C@H]3CC[C@]12C | 29
C[C@H](CCC(=O)N[C@H](CC(=O)O)Cc1cn(S(=O)(=O)c2cccc(N)c2)c2ccccc12)[C@H]1CC[C@H]2[C@@H]3CC=C4C[C@@H](O)CC[C@]4(C)[C@H]3CC[C@]12C | 5.6
C[C@H](CCC(=O)N[C@H](CC(=O)O)Cc1cn(S(=O)(=O)c2ccc([N+](=O)[O-])cc2)c2ccccc12)[C@H]1CC[C@H]2[C@@H]3CC=C4C[C@@H](O)CC[C@]4(C)[C@H]3CC[C@]12C | 3.6
C[C@H](CCC(=O)N[C@H](CC(=O)O)Cc1cn(S(=O)(=O)c2cccc(-c3ccccc3)c2)c2ccccc12)[C@H]1CC[C@H]2[C@@H]3CC=C4C[C@@H](O)CC[C@]4(C)[C@H]3CC[C@]12C | 16
C[C@H](CCC(=O)N[C@H](CC(=O)O)Cc1cn(S(=O)(=O)c2ccc(N)cc2)c2ccccc12)[C@H]1CC[C@H]2[C@@H]3CC=C4C[C@@H](O)CC[C@]4(C)[C@H]3CC[C@]12C | 4.7
C[C@H](CCC(=O)N[C@H](CC(=O)O)Cc1cn(S(=O)(=O)c2ccc(C#N)cc2)c2ccccc12)[C@H]1CC[C@H]2[C@@H]3CC=C4C[C@@H](O)CC[C@]4(C)[C@H]3CC[C@]12C | 9.9
Cc1ccc(S(=O)(=O)n2cc(C[C@@H](CC(=O)O)NC(=O)CC[C@@H](C)[C@H]3CC[C@H]4[C@@H]5CC=C6C[C@@H](O)CC[C@]6(C)[C@H]5CC[C@]34C)c3ccccc32)cc1 | 8.3
C[C@H](CCC(=O)N[C@H](CC(=O)O)Cc1cn(S(=O)(=O)c2cccnc2)c2ccccc12)[C@H]1CC[C@H]2[C@@H]3CC=C4C[C@@H](O)CC[C@]4(C)[C@H]3CC[C@]12C | 16
C[C@H](CCC(=O)N[C@H](CC(=O)O)Cc1cn(S(=O)(=O)c2ccsc2)c2ccccc12)[C@H]1CC[C@H]2[C@@H]3CC=C4C[C@@H](O)CC[C@]4(C)[C@H]3CC[C@]12C | 5.5
C[C@H](CCC(=O)N[C@H](CC(=O)O)Cc1cn(S(=O)(=O)c2cccc([N+](=O)[O-])c2)c2ccccc12)[C@H]1CC[C@H]2[C@@H]3CC=C4C[C@@H](O)CC[C@]4(C)[C@H]3CC[C@]12C | 38
Cc1cccc(S(=O)(=O)n2cc(C[C@@H](CC(=O)O)NC(=O)CC[C@@H](C)[C@H]3CC[C@H]4[C@@H]5CC=C6C[C@@H](O)CC[C@]6(C)[C@H]5CC[C@]34C)c3ccccc32)c1 | 24
C[C@H](CCC(=O)N[C@H](CC(=O)O)Cc1cn(S(=O)(=O)c2cccc(C#N)c2)c2ccccc12)[C@H]1CC[C@H]2[C@@H]3CC=C4C[C@@H](O)CC[C@]4(C)[C@H]3CC[C@]12C | 24
C[C@H](CCC(=O)N[C@H](CC(=O)O)Cc1cn(S(=O)(=O)c2cccc(C(F)(F)F)c2)c2ccccc12)[C@H]1CC[C@H]2[C@@H]3CC=C4C[C@@H](O)CC[C@]4(C)[C@H]3CC[C@]12C | 12
C[C@H](CCC(=O)N[C@H](CC(=O)O)Cc1cn(S(=O)(=O)c2ccc(F)cc2)c2ccccc12)[C@H]1CC[C@H]2[C@@H]3CC=C4C[C@@H](O)CC[C@]4(C)[C@H]3CC[C@]12C | 8.2
C[C@H](CCC(=O)N[C@H](CC(=O)O)Cc1cn(S(=O)(=O)c2ccoc2)c2ccccc12)[C@H]1CC[C@H]2[C@@H]3CC=C4C[C@@H](O)CC[C@]4(C)[C@H]3CC[C@]12C | 6.9

From ChEMBL document CHEMBL5614382, “Discovery of a new 1-(phenylsulfonyl)-1H-indole derivative targeting the EphA2 receptor with antiproliferative activity on U251 glioblastoma cell line” (Eur J Med Chem, 2024)
